In patent US11427548B2 (Arvinas Operations, Inc., priority 2015, dated 2022):
Read-outs that look alike come from different tables or passages of the source.

Target: T1, Androgen Receptor (Homo sapiens, UniProt P10275)
T1 construct: endogenous in cells; host or cells: VCaP cells
T1 sequence (P10275 1-920): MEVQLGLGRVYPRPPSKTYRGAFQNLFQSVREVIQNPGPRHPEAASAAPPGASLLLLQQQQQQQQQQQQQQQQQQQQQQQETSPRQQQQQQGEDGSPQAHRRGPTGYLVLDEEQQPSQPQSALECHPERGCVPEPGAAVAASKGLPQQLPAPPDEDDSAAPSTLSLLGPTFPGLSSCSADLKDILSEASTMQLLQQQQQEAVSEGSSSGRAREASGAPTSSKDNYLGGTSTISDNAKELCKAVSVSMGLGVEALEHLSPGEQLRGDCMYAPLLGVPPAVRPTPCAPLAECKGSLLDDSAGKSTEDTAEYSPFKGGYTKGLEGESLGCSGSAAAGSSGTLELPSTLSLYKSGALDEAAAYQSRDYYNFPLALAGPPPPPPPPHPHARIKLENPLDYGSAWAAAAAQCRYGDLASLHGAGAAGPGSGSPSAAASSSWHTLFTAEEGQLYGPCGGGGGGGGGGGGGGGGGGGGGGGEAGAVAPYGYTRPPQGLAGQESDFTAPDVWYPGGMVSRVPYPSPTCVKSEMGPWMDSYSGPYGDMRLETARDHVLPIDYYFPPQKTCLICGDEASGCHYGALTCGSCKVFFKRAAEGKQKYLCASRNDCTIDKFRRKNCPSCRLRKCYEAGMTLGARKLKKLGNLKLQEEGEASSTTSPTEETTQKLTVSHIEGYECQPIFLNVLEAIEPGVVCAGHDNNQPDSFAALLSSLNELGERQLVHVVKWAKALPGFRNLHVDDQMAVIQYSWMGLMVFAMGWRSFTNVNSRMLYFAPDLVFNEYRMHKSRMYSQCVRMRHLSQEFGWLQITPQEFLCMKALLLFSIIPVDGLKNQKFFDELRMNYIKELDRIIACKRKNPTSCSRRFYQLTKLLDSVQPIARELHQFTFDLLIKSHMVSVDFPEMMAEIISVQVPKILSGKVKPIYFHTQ
Assay: Androgen Receptor ELISA assay (PathScan AR ELISA) in VCaP cells: AR degradation, Dmax and DC50
Type: cell-based
In short: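 After 24 h exposure of VCaP cells (charcoal-stripped serum, 0.1 nM R1881 agonist, 0.1% DMSO) to seven half-log compound concentrations, residual AR in lysates was measured by PathScan ELISA (TMB absorbance, 450 nm). Cells were plated at 30,000/well and grown at least 3 days beforehand.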

[1] = VCaP cells; Table 36; read-out: VCaP DC50
[2] = VCaP, VCaP cells; Table 36; read-out: VCaP Dmax (%)
[3] = VCaP cells; Table 35; read-out: VCaP DC50
[4] = VCaP, VCaP cells; Table 35; read-out: VCaP Dmax (%)
[5] = read-out: VCaP DC50; VCaP cells; Table 34
[6] = read-out: VCaP DC50; concentration that caused 50% Androgen Receptor degradation, VCaP cells (Table 32)

## Cc1ncsc1-c1ccc([C@H](C)NC(=O)[C@@H]2C[C@@H](O)CN2C(=O)[C@@H](NC(=O)COCCCCCC2(c3ccc(C(=O)N[C@H]4C(C)(C)[C@H](Oc5ccc(C#N)c(Cl)c5)C4(C)C)cc3)COC2)C(C)(C)C)cc1 [Example 685, (2S,4R)-1-((S)-2-(2-((5-(3-(4-(((1r,3r)-3-(3-chloro-4-cyanophenoxy)-2,2,4,4-tetramethylcyclobutyl)carbamoyl)phenyl)oxetan-3-yl)pentyl)oxy)acetamido)-3,3-dimethylbutanoyl)-4-hydroxy-N-((S)-1-(4-(4-methylthiazol-5-yl)phenyl)ethyl)pyrrolidine-2-carboxamide]
[1]
  DC50: < 50 nM
[2]
  Dmax: > 71%

## Cc1ncsc1-c1ccc(CNC(=O)[C@@H]2C[C@@H](O)CN2C(=O)C(C(C)C)n2cccc(OCCCCOc3ccc(-c4ccc(N5C(=S)N(c6ccc(C#N)c(C(F)(F)F)c6)C(=O)C5(C)C)cc4)cc3)c2=O)cc1 (stereo partly drawn) [Example 395]
VCaP, read-out: VCaP Dmax (%)
  Dmax: < 25%

## Cc1ncsc1-c1ccc([C@H](C)NC(=O)[C@@H]2C[C@@H](O)CN2C(=O)[C@H](C(C)C)n2cc(OCCCOCCC(O)CCOc3ccc(N4C(=S)N(c5ccc(C#N)c(C(F)(F)F)c5)C(=O)C4(C)C)cc3)cn2)cc1 (stereo partly drawn) [Example 419]
VCaP, read-out: VCaP Dmax (%)
  Dmax: 26 to 50%
read-out: VCaP DC50; VCaP cells; Table 35
  DC50: < 50 nM

## CNC(=O)[C@H]1CCCN1C(=O)C(NC(=O)COCCN1CCN(c2ccc(C(=O)N[C@H]3C(C)(C)[C@H](Oc4ccc(C#N)c(Cl)c4)C3(C)C)cn2)CC1)C(C)(C)C (stereo partly drawn) [Example 700, N-((1r,3r)-3-(3-chloro-4-cyanophenoxy)-2,2,4,4-tetramethylcyclobutyl)-6-(4-(2-(2-(((S)-3,3-dimethyl-1-((S)-2-(methylcarbamoyl)pyrroli-din-1-yl)-1-oxobutan-2-yl)amino)-2-oxoethoxy)ethyl)pipera-zin-1-yl)nicotinamide]
[1]
  DC50: > 501 nM
[2]
  Dmax: < 25%

## Cc1ncsc1-c1ccc([C@H](C)NC(=O)[C@@H]2C[C@@H](O)CN2C(=O)[C@@H](NC(=O)c2cc3ccc(OC4CN(c5ncc(C(=O)N[C@H]6C(C)(C)[C@H](Oc7ccc(C#N)c(Cl)c7)C6(C)C)cn5)C4)cc3o2)C(C)(C)C)cc1 [Example 422]
[3]
  DC50: < 50 nM
[4]
  Dmax: > 71%

## Cc1ncsc1-c1ccc([C@H](C)NC(=O)[C@@H]2C[C@@H](O)CN2C(=O)C(C(C)C)n2cnc(-c3ccnc(N4CC[C@H](Oc5ccc(N6C(=S)N(c7ccc(C#N)c(C(F)(F)F)c7)C(=O)C6(C)C)cc5)C4)c3)c2)cc1 (stereo partly drawn) [Example 617, 1-(2-(4-(2-(3-(4-(3-(4-cyano-3-(trifluoromethyl)phenyl)-5,5-dimethyl-4-oxo-2-thioxoimidazolidin-1-yl)phenoxy)pyrrolidin-1-yl)pyridin-4-yl)-1H-imidazol-1-yl)-3-methylbutanoyl)-4-hydroxy-N-(1-(4-(4-methylthiazol-5-yl)phenyl)ethyl)pyrrolidine-2-carboxamide]
VCaP, read-out: VCaP Dmax (%)
  Dmax: < 25%
read-out: VCaP DC50; VCaP cells; Table 36
  DC50: > 501 nM

## COc1cc(N2C(=O)C(C)(C)N(c3ccc(OCCOc4ccc(OCC(=O)N[C@H](C(=O)N5C[C@H](O)C[C@H]5C(=O)NCc5ccc(-c6scnc6C)cc5)C(C)(C)C)cc4)c(F)c3)C2=S)ccc1C#N [Example 323]
VCaP cells; Table 34; read-out: VCaP DC50
  DC50: < 50 nM
VCaP, VCaP cells; Table 34; read-out: VCaP Dmax (%)
  Dmax: 51 to 70%

## COC(=O)[C@@H]1C[C@@H](O)CN1C(=O)[C@@H](NC(=O)COCCCCCOc1ccc(C(=O)N[C@H]2C(C)(C)[C@H](Oc3ccc(C#N)c(Cl)c3)C2(C)C)cc1)C(C)(C)C [Example 519]
[3]
  DC50: < 50 nM
[4]
  Dmax: 26 to 50%

## Cc1ncoc1-c1ccc(CNC(=O)[C@@H]2C[C@@H](O)CN2C(=O)[C@@H](NC(=O)COCCCCOc2ccc(-c3ccc(N4C(=S)N(c5ccc(C#N)c(C(F)(F)F)c5)C(=O)C4(C)C)cc3F)cc2)C(C)(C)C)cc1 [Example 399]
VCaP, read-out: VCaP Dmax (%)
  Dmax: > 71%
[5]
  DC50: < 50 nM

## CNC(=O)[C@@H]1C[C@@H](O)CN1C(=O)[C@@H](NC(=O)COCCCCCOc1ccc(C(=O)N[C@H]2C(C)(C)[C@H](Oc3ccc(C#N)c(Cl)c3)C2(C)C)cc1)C(C)(C)C [Example 507]
[3]
  DC50: < 50 nM
[4]
  Dmax: 26 to 50%

## Cc1ncoc1-c1ccc(CNC(=O)[C@@H]2C[C@@H](O)CN2C(=O)[C@@H](NC(=O)COCCCCOc2ccc(-c3ccc(N4C(=S)N(c5ccc(C#N)c(Cl)c5)C(=O)C4(C)C)cc3)cc2)C(C)(C)C)cc1 [Example 110, (2S,4R)-1-[(2S)-2-{2-[4-(4-{4-[3-(3-chloro-4-cyanophenyl)-5,5-dimethyl-4-oxo-2-sulfanylideneimidazolidin-1-yl]phenyl}phenoxy)butoxy]acetamido}-3,3-dimethylbutanoyl]-4-hydroxy-N-{[4-(4-methyl-1,3-oxazol-5-yl)phenyl]methyl}pyrrolidine-2-carboxamide]
VCaP, read-out: VCaP Dmax (%)
  Dmax: > 71%
[6]
  DC50: < 50 nM

## Cc1ncsc1-c1ccc(CNC(=O)[C@@H]2C[C@@H](O)CN2C(=O)[C@@H](NC(=O)COC[C@H](O)CCOc2ccc(-c3ccc(N4C(=S)N(c5ccc(C#N)c(C(F)(F)F)c5)C(=O)C4(C)C)cc3)cc2)C(C)(C)C)cc1 [Example 130, (2S,4R)-1-[(2S)-2-{2-[(2R)-4-[4-(4-{3-[4-cyano-3-(trifluoromethyl)phenyl]-5,5-dimethyl-4-oxo-2-sulfanylideneimidazolidin-1-yl}phenyl)phenoxy]-2-hydroxybutoxy]acetamido}-3,3-dimethylbutanoyl]-4-hydroxy-N-{[4-(4-methyl-1,3-thiazol-5-yl)phenyl]methyl}pyrrolidine-2-carboxamide]
VCaP, read-out: VCaP Dmax (%)
  Dmax: 51 to 70%
[6]
  DC50: < 50 nM

## Cc1ncsc1-c1ccc([C@H](C)NC(=O)[C@@H]2C[C@@H](O)CN2C(=O)[C@@H](NC(=O)COCCN2CCN(c3ccc(C(=O)N[C@H]4C(C)(C)[C@H](Oc5ccc(C#N)c(Cl)c5)C4(C)C)cc3)CC2)C(C)(C)O)cc1 [Example 660, (2S,4R)-1-((S)-2-(2-(2-(4-(4-(((1r,3r)-3-(3-chloro-4-cyanophenoxy)-2,2,4,4-tetramethylcyclobutyl)carbamoyl)phenyl)piper-azin-1-yl)ethoxy)acetamido)-3-hydroxy-3-methylbutanoyl)-4-hydroxy-N-((S)-1-(4-(4-methylthiazol-5-yl)phenyl)ethyl)pyrrolidine-2-carboxamide]
[1]
  DC50: > 501 nM
VCaP, read-out: VCaP Dmax (%), VCaP cells; Table 36
  Dmax: 26 to 50%

## Cc1ncoc1-c1ccc(CNC(=O)[C@@H]2C[C@@H](O)CN2C(=O)[C@@H](NC(=O)COCCCNC(=O)c2ccc(-c3ccc(N4C(=S)N(c5ccc(C#N)c(C(F)(F)F)c5)C(=O)C4(C)C)cc3)cc2)C(C)(C)C)cc1 [Example 402]
VCaP, read-out: VCaP Dmax (%)
  Dmax: 51 to 70%
[5]
  DC50: < 50 nM

## Cc1ncsc1-c1ccc([C@H](C)NC(=O)[C@@H]2C[C@@H](O)CN2C(=O)[C@@H](NC(=O)CO[C@H]2C[C@@H](N3CCN(c4ccc(C(=O)N[C@H]5C(C)(C)[C@H](Oc6ccc(C#N)c(Cl)c6)C5(C)C)cn4)CC3)C2)C(C)(C)C)cc1 [Example 845, N-((1r,3R)-3-(3-chloro-4-cyanophenoxy)-2,2,4,4-tetramethylcyclobutyl)-6-(4-((1R,3S)-3-(2-(((S)-1-((2S,4R)-4-hydroxy-2-(((S)-1-(4-(4-methylthiazol-5-yl)phenyl)ethyl)carbamoyl)pyrrolidin-1-yl)-3,3-dimethyl-1-oxobutan-2-yl)amino)-2-oxoethoxy)cyclobutyl)piperazin-1-yl)nicotinamide]
[1]
  DC50: < 50 nM
[2]
  Dmax: > 71%

## Cc1ncsc1-c1ccc(CNC(=O)[C@@H]2C[C@@H](O)CN2C(=O)[C@H](C(C)C)N2Cc3ccccc3C2=O)c(N2CCN(CCCc3ccc(C(=O)N[C@H]4C(C)(C)[C@H](Oc5ccc(C#N)c(Cl)c5)C4(C)C)cc3)CC2)c1 [Example 752, (2S,4R)-N-(2-(4-(3-(4-(((1r,3r)-3-(3-chloro-4-cyanophenoxy)-2,2,4,4-tetramethylcyclobutyl)carbamoyl)phenyl)propyl)piperazin-1-yl)-4-(4-methylthiazol-5-yl)benzyl)-4-hydroxy-1-((S)-3-methyl-2-(1-oxoisoindolin-2-yl)butanoyl)pyrrolidine-2-carboxamide]
[1]
  DC50: < 50 nM
[2]
  Dmax: 51 to 70%

## Cc1ncsc1-c1ccc([C@H](C)NC(=O)[C@@H]2C[C@@H](O)CN2C(=O)[C@@H](NC(=O)COCCCCCNc2ccc(C(=O)N[C@H]3C(C)(C)[C@H](Oc4ccc(C#N)c(Cl)c4)C3(C)C)nc2)C(C)(C)C)cc1 [Example 482]
[3]
  DC50: < 50 nM
[4]
  Dmax: 51 to 70%
